Reference: patent US20170299579A1, “VITELLINE MEMBRANE AS A MODEL OF THE BLOOD BRAIN BARRIER” (priority 2016, published 2017)
Where two headings read alike, the source gives them in different places.

How the values were obtained:
[1] = not told
[2] = not told; remark: listed apart in the source
[3] = Spectrophotometric absorbance of yolk of decalcified quail eggs after incubation with agent; format: in vitro ADME
Description: (§1) An Ultrospect III spectrophotometer (Pharmacia, Cambridge, England) was recently calibrated by Spectrofuge Corporation of North Carolina, Inc. (Durham, N.C.). Blank quartz cuvettes were selected with the smallest deviation in absorbance. Standard solutions of 2.6×10^−3M acetaminophen and 4.4×10^−3 2-cholorprocaine were prepared. Approximate peak ultraviolet wavelengths were determined with the standard solutions in methanol and PBS. Fine adjustment of the optimum wavelength was performed by retrofit of Beer's law plots of the standards and dilutions. Optimum absorbance wavelengths for acetaminophen and 2-chloroprocaine were 300 nm 329 nm, respectively. Optimum absorbance wavelengths for acetaminophen and 2-choroprocaine dissolve in PBS were 319 nm and 340, respectively. (Table 3)
(§2) The decalcified eggs were soaked in solutions for 2 or 12 hours and then placed in a home freezer prior to analysis. The quail eggs were opened with a razor knife and the denatured albumen and yolk were separated. In most samples the vitelline membrane could be easily separated from the yolk. Samples of the denatured albumen and yolk were dissolved in 5 ml of methanol or PBS and centrifuged at 2700 rpm for 5 minutes. The supernatants were then clarified through a 0.2 micrometer filter (MILLEX-FG, Merck Millipore, Ltd). Clarification of the PBS samples was more difficult than the methanol samples. The clear filtrate was placed in quartz cuvettes. Any air bubbles were eliminated and the samples were analyzed in the spectrophotometer. (Tables 4&5)

[4] = Spectrophotometric absorbance of albumen of decalcified quail eggs after incubation with agent; format: in vitro ADME
Description: as §1, §2

[5] = Permeability of vitelline membrane of decalcified quail eggs (agent reaching the yolk), model of the human blood brain barrier
[6] = in PBS, 4.4 × 10^−2 m/l, 340 nm, 12 hours
[7] = in methanol, 4.4 × 10^−2 m/L, 329 nm, 2 hours
[8] = in methanol, 4.4 × 10^−2 m/L, 329 nm, 12 hours

For `CC(=O)Nc1ccc(O)cc1` [Acetaminophen], the “Crossing of the vitelline membrane” value [1] was “crossed the vitelline membrane”, the “Permeability (vitelline membrane)” value [1] was “+” and the “Permeability (outer and inner membrane)” value [2] was “+”. For the same compound, the “Yolk (abs)” value ([3]; quail, 2 h) was 2.40 abs and the “Albumen (abs)” value ([4]; quail, 2 h) was 2.85 abs.
For `CCO` [Ethanol], the “Crossing of the vitelline membrane” value [1] was “crossed the vitelline membrane”, the “Permeability (vitelline membrane)” value [1] was “+” and the “Permeability (outer and inner membrane)” value [2] was “+”.
In the case of `CCOCC` [Ether, diethyl ether], the “Permeability (outer and inner membrane)” value [2] is reported as “+”.
For `Cc1cc(C2(c3ccc(O)c(C)c3)OS(=O)(=O)c3ccccc32)ccc1O` [Creosol red], the “Permeability (vitelline membrane)” value [1] was “−” and the “Permeability (outer and inner membrane)” value [2] was “+”.
For `CN(C)c1ccc(/N=N/c2ccccc2C(=O)O)cc1` [Methyl red], the “Permeability (vitelline membrane)” value [1] was “−” and the “Permeability (outer and inner membrane)” value [2] was “+”.
For `CCN(Cc1cccc(S(=O)(=O)[O-])c1)c1ccc(C(=C2C=CC(=[N+](CC)Cc3cccc(S(=O)(=O)[O-])c3)C=C2)c2ccccc2S(=O)(=O)[O-])cc1.[Na+].[Na+]` [FD&C Blue #1], the “Permeability (vitelline membrane)” value [1] was “−” and the “Permeability (outer and inner membrane)” value [2] was “+”.
For `[K+].[K+].[O]=[Cr](=[O])([O-])[O][Cr](=[O])(=[O])[O-]` [Potassium dichromate], the “Permeability (vitelline membrane)” value ([5]; 0.01M, incubation time 2 hours) was “−”.
In the case of `C=C[C@H]1C[N@@]2CC[C@H]1C[C@H]2[C@H](O)c1ccnc2ccc(OC)cc12` [Quinine], the “Permeability (vitelline membrane)” value [1] is reported as “−” and the “Permeability (outer and inner membrane)” value [2] is reported as “+”.
For `CCN(CC)CCOC(=O)c1ccc(N)cc1Cl` [2-Chloroprocaine], the “Yolk (abs)” value [3, 6] was 1.04 abs, the “Yolk (abs)” value [3, 7] was 1.37 abs and the “Yolk (abs)” value [3, 8] was 1.71 abs. For the same compound, the “Albumen (abs)” value [4, 6] was 0.48 abs, the “Albumen (abs)” value [4, 7] was 1.86 abs and the “Albumen (abs)” value [4, 8] was 2.52 abs. The “Permeability (vitelline membrane)” value ([5]; agent in PBS, 2-Chloroprocaine 4 × 10^−2 M, Acetaminophen 2.6 × 10^−1 M, incubation time 12 hours) was “+”, the “Permeability (vitelline membrane)” value ([5]; agent in methanol, 2-Chloroprocaine 4 × 10−2 M, Acetaminophen 2.6 × 10^−1 M, incubation time 2 & 12 hours) was “+” and the “Crossing of the vitelline membrane” value ([5]; spectroscopic analysis) was “crossed the vitelline membrane”.
With `O=C1OC2(c3ccc(O)cc3Oc3cc(O)ccc32)c2ccccc21` [Fluorescein] the “Permeability (vitelline membrane)” value [1] was “−” and the “Permeability (outer and inner membrane)” value [2] was “+”.
In the case of `CN(C)c1ccc(C(=C2C=CC(=[N+](C)C)C=C2)c2ccccc2)cc1` [Malachite green], the “Permeability (vitelline membrane)” value ([5]; 0.01M, incubation time 2 hours) is reported as “−”.
